According to US8906911B2, “Chemokine receptor antagonists” (AbbVie Inc., priority 2012, dated 2014):
Like-named read-outs stand apart in the source and are kept apart here.

Key:
human CCR2B [1] = biological target: T1, human CCR2B (Homo sapiens (Human), UniProt P41597); assay: Inhibition of [125I]-labeled MCP-1 binding to hCCR2B (radioligand binding in CHO cells); settings: mean Ki; [125I]-MCP-1 50 pM; CHO cells expressing human CCR2B and Gα16
Description: CHO cells expressing human CCR2B were generated as follows. cDNA for human CCR2B (cloned from human blood) was cloned into plasmid pcDNA3.1 (from Invitrogen). The resulting plasmids were separately transfected into CHO cells expressing human Gα16 (from Molecular Devices). […] CHO cells expressing rat CCR2 were generated as follows. cDNA for rat CCR2 (cloned from rat macrophage) was cloned into plasmid pEF-flag (from Chinese Academy of Science). The resulting plasmids were transfected into CHO cells expressing human Gα16 (from […]).
Inhibition of [^125I]-Labeled MCP-1 Binding to hCCR2B
Radioligand binding assays were performed in CHO cells expressing human CCR2B and Gα16 coupling protein. All compounds were dissolved in DMSO and assays run at a final DMSO concentration of 0.5% (v/v). [^125I]-labeled human MCP-1 was purchased from PerkinElmer. Unlabelled human MCP-1 was purchased from PeproTech.
Compounds were serially diluted in DMSO before diluting into assay buffer (25 mM HEPES, pH 7.4, 5 mM MgCl2, 1 mM CaCl2, 0.5% BSA) with cryo preserved CHO cells expressing human CCR2B and the Gα16 coupling protein (30×10^3/well) and [^125I]-MCP-1 (50 pM). The reaction was incubated at room temperature for 90 minutes before transferring to GF/C filter membrane (PerkinElmer) pre-treated with 0.3% polyethyleneimine for 2 hours at 4° C. The filter membrane was washed six times with ice cold wash buffer (25 mM HEPES, pH 7.4, 5 mM MgCl2, 1 mM CaCl2, 500 mM NaCl, 0.01% (m/v) azide), dried, and sealed in a RLB sample bag (Agilent Technologies) before adding 5.0 mL Microscint 20 to each bag. Membrane was counted on Microbeta counter where background binding was determined by the presence of 100 nM MCP-1 and control total binding was determined by addition of DMSO in place of the test compound. The radioactivity values (cpm) were used to calculate the percent inhibition at a given compound concentration and the data fit to a sigmoidal curve in a semi-log plot to determine IC50 values. The corresponding Ki value is calculated as follows:
Ki=IC50/(1+[radioligand]/Kd), where [radioligand] is the concentration of the label and Kd (dissociation constant) is determined in saturation experiment with different concentrations of labeled MCP-1.

rat CCR2 = rat CCR2 (Rattus norvegicus (Rat), UniProt O55193); assay: Inhibition of native agonist (rat MCP-1)-induced intracellular calcium release, calcium flux assay in CHO cells expressing rat CCR2 and Gα16; type: cell-based; settings: read-out: rCCR2 Kb
How it was run: (§1)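 Compound added to Calcium 4 dye-loaded adherent cells (dye loading 60 min, 37° C., HEPES pH 7.4 buffer with probenecid), then agonist: human MCP-1 at 2 nM final for hCCR2B cells, rat MCP-1 at 4 nM final for rCCR2 cells. FLIPR fluorescence change gave IC50. Kb=IC50/(1+[agonist]/EC50). Final DMSO 0.25%.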

human CCR2B [2] = biological target: T1, human CCR2B; assay: Inhibition of native agonist (human MCP-1)-induced intracellular calcium release, calcium flux assay in CHO cells expressing human CCR2B and Gα16; type: cell-based; settings: for IC50: read-out: hCCR2B IC50; for Kb: read-out: hCCR2B Kb
How it was run: as §1

CCR2 [3] = biological target: CCR2 (Rattus norvegicus (Rat), UniProt O55193); settings: direct injection of MCP-1 in the spinal cord; cited from earlier work
CCR2 [4] = settings: in vivo; cited from earlier work

T1 sequence (P41597 other isoform, or with tags, fused parts or gaps): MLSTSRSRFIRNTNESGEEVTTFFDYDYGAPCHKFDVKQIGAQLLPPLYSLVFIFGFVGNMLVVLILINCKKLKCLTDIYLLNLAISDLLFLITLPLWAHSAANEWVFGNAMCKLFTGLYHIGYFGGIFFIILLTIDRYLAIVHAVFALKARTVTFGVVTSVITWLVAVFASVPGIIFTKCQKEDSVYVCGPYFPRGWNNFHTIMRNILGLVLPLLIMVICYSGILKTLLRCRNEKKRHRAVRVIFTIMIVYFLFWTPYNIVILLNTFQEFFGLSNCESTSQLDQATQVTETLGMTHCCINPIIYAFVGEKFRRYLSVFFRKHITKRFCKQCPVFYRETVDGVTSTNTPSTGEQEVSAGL
Sequence of rat CCR2 (O55193 whole entry): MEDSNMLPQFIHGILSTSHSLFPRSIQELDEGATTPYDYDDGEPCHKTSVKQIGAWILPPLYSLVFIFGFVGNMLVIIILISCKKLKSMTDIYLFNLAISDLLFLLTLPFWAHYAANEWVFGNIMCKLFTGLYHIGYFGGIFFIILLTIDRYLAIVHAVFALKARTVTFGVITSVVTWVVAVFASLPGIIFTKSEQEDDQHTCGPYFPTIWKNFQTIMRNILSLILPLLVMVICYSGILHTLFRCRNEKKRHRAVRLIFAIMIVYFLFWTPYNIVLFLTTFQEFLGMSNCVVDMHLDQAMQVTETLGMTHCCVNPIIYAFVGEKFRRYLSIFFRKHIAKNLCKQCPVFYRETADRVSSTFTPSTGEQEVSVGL
Sequence of CCR2 (Rattus norvegicus (Rat), UniProt O55193) (O55193 whole entry): as above

Row | SMILES | Ki (human CCR2B [1]) [nM] | Kb (rat CCR2) [nM] | IC50 (human CCR2B [2]; calcium flux, human MCP-1 2 nM) [nM] | Kb (human CCR2B [2]) [nM] | IC50 (human CCR2B [2]) [nM] | MCP-1 induced pronociception (thermal hyperalgesia and mechanical allodynia) (CCR2 [3]) | hyperalgesia induced by MCP-1 injection in the RVM (CCR2 [4])
1 | CO[C@@H]1COCC[C@@H]1N(C)[C@@H]1C[C@H]2CCC[C@@]2(C(=O)N2C[C@@H]3C[C@H]2CN3c2ccc(C#N)c(C(F)(F)F)c2)C1 [Example 56, 1,5-anhydro-3-{[(2R,3aR,6aR)-3a-({(1S,4S)-5-[4-cyano-3-(trifluoromethyl)phenyl]-2,5-diazabicyclo[2.2.1]hept-2-yl}carbonyl)octahydropentalen-2-yl](methyl)amino}-2,3-dideoxy-4-O-methyl-D-erythro-pentitol] | 32 | 9 | 46 | 11 | – | – | –
2 | CO[C@@H]1COCC[C@@H]1N[C@@H]1C[C@H]2CCC[C@@]2(C(=O)N2C[C@@H]3C[C@H]2CN3C(=O)OC(C)(C)C)C1 [Example 60, 1,5-anhydro-3-{[(2R,3aR,6aR)-3a-{[(1S,4S)-5-(tert-butoxycarbonyl)-2,5-diazabicyclo[2.2.1]hept-2-yl]carbonyl}octahydropentalen-2-yl]amino}-2,3-dideoxy-4-O-methyl-D-erythro-pentitol] | 552 | 19 | – | 81 | 328 | – | –
3 | C[C@H]1COCC[C@@H]1N[C@@H]1C[C@H]2CCC[C@@]2(C(=O)N2C[C@@H]3C[C@H]2CN3c2cc(C(F)(F)F)ccn2)C1 [Example 61, [(2R,3aR,6aR)-2-{[(3R,4S)-3-methyltetrahydro-2H-pyran-4-yl]amino}hexahydropentalen-3a(1H)-yl]{(1S,4S)-5-[4-(trifluoromethyl)pyridin-2-yl]-2,5-diazabicyclo[2.2.1]hept-2-yl}methanone] | 69 | 30 | 100 | 25 | – | – | –
4 | C[C@@H]1COCC[C@@H]1N[C@@H]1C[C@H]2CCC[C@@]2(C(=O)N2C[C@@H]3C[C@H]2CN3c2cc(C(F)(F)F)ccn2)C1 [Example 63, [(2R,3aR,6aR)-2-{[(3S,4S)-3-methyltetrahydro-2H-pyran-4-yl]amino}hexahydropentalen-3a(1H)-yl]{(1S,4S)-5-[4-(trifluoromethyl)pyridin-2-yl]-2,5-diazabicyclo[2.2.1]hept-2-yl}methanone] | 10 | 6 | 17.9 | 4 | – | – | –
5 | C[C@@H]1COCC[C@H]1N[C@@H]1C[C@H]2CCC[C@@]2(C(=O)N2C[C@@H]3C[C@H]2CN3c2cc(C(F)(F)F)ccn2)C1 [Example 64, [(2R,3aR,6aR)-2-{[(3S,4R)-3-methyltetrahydro-2H-pyran-4-yl]amino}hexahydropentalen-3a(1H)-yl]{(1S,4S)-5-[4-(trifluoromethyl)pyridin-2-yl]-2,5-diazabicyclo[2.2.1]hept-2-yl}methanone] | 12 | 9 | 16.5 | 4 | – | – | –
6 | CC[C@@H]1COCC[C@@H]1N[C@@H]1C[C@H]2CCC[C@@]2(C(=O)N2C[C@@H]3C[C@H]2CN3c2cc(C(F)(F)F)ccn2)C1 [Example 65, [(2R,3aR,6aR)-2-{[(3S,4S)-3-ethyltetrahydro-2H-pyran-4-yl]amino}hexahydropentalen-3a(1H)-yl]{(1S,4S)-5-[4-(trifluoromethyl)pyridin-2-yl]-2,5-diazabicyclo[2.2.1]hept-2-yl}methanone] | 6 | 8 | – | 7 | 28 | – | –
7 | CC[C@@H]1COCC[C@H]1N[C@@H]1C[C@H]2CCC[C@@]2(C(=O)N2C[C@@H]3C[C@H]2CN3c2cc(C(F)(F)F)ccn2)C1 [Example 66, [(2R,3aR,6aR)-2-{[(3S,4R)-3-ethyltetrahydro-2H-pyran-4-yl]amino}hexahydropentalen-3a(1H)-yl]{(1S,4S)-5-[4-(trifluoromethyl)pyridin-2-yl]-2,5-diazabicyclo[2.2.1]hept-2-yl}methanone] | 13 | 8 | 45.8 | 11 | – | – | –
8 | CCO[C@H]1CN(C2CCC(O)(c3ccc4c(c3)OCO4)CC2)C[C@@H]1NC(=O)CNC(=O)c1cccc(C(F)(F)F)c1 (stereo partly drawn) [INCB3344] | – | – | – | – | – | blocked | –
9 | O=C1Nc2ccccc2C2(CCN(CCc3ccc(C(F)(F)F)cc3)CC2)O1 [RS102895] | – | – | – | – | – | – | reversed
